Consider 27 compounds from patent US10758534B2 (Vertex Pharmaceuticals Incorporated, priority 2014, dated 2020).

The target in this assay is T1, F508del (Homo sapiens, UniProt P13569, DEL508-508).
T1 construct: expressed in transfected cells
T1 sequence (P13569 with tags, fused parts or gaps DEL508-508): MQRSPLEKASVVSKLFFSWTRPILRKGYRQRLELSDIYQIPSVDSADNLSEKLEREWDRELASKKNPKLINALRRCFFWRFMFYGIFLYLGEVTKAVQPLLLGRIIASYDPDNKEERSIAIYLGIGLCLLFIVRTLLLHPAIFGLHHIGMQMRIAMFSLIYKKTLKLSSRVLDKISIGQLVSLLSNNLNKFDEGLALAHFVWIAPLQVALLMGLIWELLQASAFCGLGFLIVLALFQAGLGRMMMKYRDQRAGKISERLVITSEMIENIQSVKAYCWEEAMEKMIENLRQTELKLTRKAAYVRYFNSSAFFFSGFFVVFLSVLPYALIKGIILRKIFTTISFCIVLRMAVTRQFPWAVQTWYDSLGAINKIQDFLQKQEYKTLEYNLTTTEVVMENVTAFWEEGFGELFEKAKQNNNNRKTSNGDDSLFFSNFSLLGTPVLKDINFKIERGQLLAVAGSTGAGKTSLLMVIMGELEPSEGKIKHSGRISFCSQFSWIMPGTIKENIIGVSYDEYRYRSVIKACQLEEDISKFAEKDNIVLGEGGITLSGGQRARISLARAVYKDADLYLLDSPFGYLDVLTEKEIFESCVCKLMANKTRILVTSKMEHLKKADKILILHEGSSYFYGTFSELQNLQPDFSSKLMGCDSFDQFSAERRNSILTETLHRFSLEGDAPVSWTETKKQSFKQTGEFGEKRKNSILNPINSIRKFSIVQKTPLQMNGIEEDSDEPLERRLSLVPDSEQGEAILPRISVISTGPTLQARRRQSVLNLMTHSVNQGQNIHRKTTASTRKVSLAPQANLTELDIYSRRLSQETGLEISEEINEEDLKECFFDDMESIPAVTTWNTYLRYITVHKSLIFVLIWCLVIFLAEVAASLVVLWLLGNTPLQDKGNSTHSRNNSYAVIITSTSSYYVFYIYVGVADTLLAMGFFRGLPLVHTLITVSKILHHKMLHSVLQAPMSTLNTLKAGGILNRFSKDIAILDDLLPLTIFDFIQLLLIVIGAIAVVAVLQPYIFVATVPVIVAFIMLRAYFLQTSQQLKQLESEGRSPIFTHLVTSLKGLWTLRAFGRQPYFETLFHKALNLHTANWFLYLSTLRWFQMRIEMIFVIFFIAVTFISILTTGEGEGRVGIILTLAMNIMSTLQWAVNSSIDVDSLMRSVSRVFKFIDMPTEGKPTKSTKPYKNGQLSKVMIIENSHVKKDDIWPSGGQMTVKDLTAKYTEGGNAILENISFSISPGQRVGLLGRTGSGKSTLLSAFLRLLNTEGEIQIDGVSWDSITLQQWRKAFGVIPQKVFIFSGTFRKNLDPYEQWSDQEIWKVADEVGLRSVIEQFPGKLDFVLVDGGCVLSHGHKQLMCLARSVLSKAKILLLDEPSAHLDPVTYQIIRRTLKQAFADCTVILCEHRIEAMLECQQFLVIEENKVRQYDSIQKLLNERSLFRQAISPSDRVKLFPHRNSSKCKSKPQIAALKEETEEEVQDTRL
Briefly: Protocol 1: membrane potential optical assay (FLIPR III, voltage sensing dye), identification of potentiator compounds. It is filed as cell-based. As to conditions: Table 3, compounds of Table 1. The method, boiled down: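 NIH 3T3 fibroblasts stably expressing F508del were cultured at 27° C for 24 hrs for temperature correction, then treated with compounds or DMSO and loaded with a voltage-sensing redistribution dye. Forskolin added with a Cl⁻ gradient activated the channel; membrane-potential fluorescence on FLIPR III reported increased gating.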
Turning to `CC(C)COc1cc(F)cc(-c2ccc(C(=O)NS(=O)(=O)c3cccc(N)n3)c(N3CCC(C)(C)[C@H]3C)n2)c1` [Compound 1065, N-[(6-amino-2-pyridyl)sulfonyl]-6-(3-fluoro-5-isobutoxy-phenyl)-2-[(2R)-2,3,3-trimethylpyrrolidin-1-yl]pyridine-3-carboxamide], the EC30 entry is given as “+++ (“+++” means <3 uM)”.
The result for `CC(C)COc1cc(F)cc(-c2ccc(C(=O)NS(=O)(=O)c3ccn[nH]3)c(N3CCC4(CC3)CC4)n2)c1` [Compound 1127, 2-(6-azaspiro[2.5]octan-6-yl)-6-(3-fluoro-5-isobutoxy-phenyl)-N-(1H-pyrazol-5-ylsulfonyl)pyridine-3-carboxamide] reads “+++ (“+++” means <3 uM)”; that for `C[C@@H]1CN(c2nc(-c3cccc4ccccc34)ccc2C(=O)NS(=O)(=O)c2cccnc2N)C(C)(C)C1` [Compound 1857, N-[(2-amino-3-pyridyl)sulfonyl]-6-(1-naphthyl)-2-[(4S)-2,2,4-trimethylpyrrolidin-1-yl]pyridine-3-carboxamide], “+++ (“+++” means <3 uM)”.
The entry for `CC(C)CS(=O)(=O)N1CCC=C(c2ccc(C(=O)NS(=O)(=O)c3cccc(N)n3)c(N3C[C@@H](C)CC3(C)C)n2)C1` [Compound 1882, N-[(6-amino-2-pyridyl)sulfonyl]-6-(1-isobutylsulfonyl-3,6-dihydro-2H-pyridin-5-yl)-2-[(4S)-2,2,4-trimethylpyrrolidin-1-yl]pyridine-3-carboxamide] is “+ (“+” means greater than 10 uM)”; for `COc1ccc(-c2cnc(N3CC(C)CC3(C)C)c(C(=O)NS(=O)(=O)c3cccc(N)n3)c2)cn1` (stereo not drawn) [Compound 1886, N-[(6-amino-2-pyridyl)sulfonyl]-5-(6-methoxy-3-pyridyl)-2-(2,2,4-trimethylpyrrolidin-1-yl)pyridine-3-carboxamide] it is “++ (“++” means between 3 uM and 10 uM)”.
For the compound `CCOc1cccc2c1CN(Cc1c(C)cc(C)cc1C)C2(C)C(=O)NS(=O)(=O)c1ccc(F)c(N)c1` (stereo not drawn) [Compound 1394, N-(3-amino-4-fluoro-phenyl)sulfonyl-4-ethoxy-1-methyl-2-[(2,4,6-trimethylphenyl)methyl]isoindoline-1-carboxamide], the EC30 entry is reported as “+++ (“+++” means <3 uM)”.
As for `Cc1nc(OCC(C)C)ccc1-c1ccc(C(=O)NS(=O)(=O)c2cccc(N)n2)c(N2[C@H](C)CC[C@@H]2C)n1` [Compound 1537, N-[(6-amino-2-pyridyl)sulfonyl]-2-[(2R,5S)-2,5-dimethylpyrrolidin-1-yl]-6-(6-isobutoxy-2-methyl-3-pyridyl)pyridine-3-carboxamide], the EC30 entry is “+++ (“+++” means <3 uM)”.
The entry for `CC1CN(c2ncccc2C(=O)NS(=O)(=O)c2cccc(Nc3ccc(OC(F)(F)F)cc3)n2)C(C)(C)C1` (stereo not drawn) [Compound 1977, N—[[6-[4-(trifluoromethoxy)anilino]-2-pyridyl]sulfonyl]-2-(2,2,4-trimethylpyrrolidin-1-yl)pyridine-3-carboxamide] is “+++ (“+++” means <3 uM)”; for `C[C@@H]1CN(c2nc(C3CCCCO3)ccc2C(=O)NS(=O)(=O)c2ccccc2)C(C)(C)C1` (stereo partly drawn) [Compound 1868, N-(benzenesulfonyl)-6-tetrahydropyran-2-yl-2-[(4S)-2,2,4-trimethylpyrrolidin-1-yl]pyridine-3-carboxamide] it is “+++ (“+++” means <3 uM)”; for `CC(C)COc1cc(F)cc(-c2ccc(C(=O)NS(=O)(=O)c3cccc(N)n3)c(N3CC4(CC4)CC3(C)C)n2)c1` [Compound 1746, N-[(6-amino-2-pyridyl)sulfonyl]-2-(5,5-dimethyl-6-azaspiro[2.4]heptan-6-yl)-6-(3-fluoro-5-isobutoxy-phenyl)pyridine-3-carboxamide] it is “+++ (“+++” means <3 uM)”.
The result for `CCCOc1ccc(-c2ccc(C(=O)NS(=O)(=O)c3ccc[nH]c3=O)c(Oc3c(C)cc(C)cc3C)n2)cc1Cl` [Compound 999, 6-(3-chloro-4-propoxy-phenyl)-N-[(2-oxo-1H-pyridin-3-yl)sulfonyl]-2-(2,4,6-trimethylphenoxy)pyridine-3-carboxamide] reads “++ (“++” means between 3 uM and 10 uM)”.
The entry for `Cc1cccc(C)c1Cn1c(C(=O)NS(=O)(=O)c2ccccc2)cc2cccnc21` [Compound 1291, N-(benzenesulfonyl)-1-[(2,6-dimethylphenyl)methyl]pyrrolo[2,3-b]pyridine-2-carboxamide] is “++ (“++” means between 3 uM and 10 uM)”; for `Cc1cc(C)c(Oc2nc(-c3cc(OCC(C)C)ccc3Cl)ccc2C(=O)NS(=O)(=O)c2ccc[nH]c2=O)c(C)c1` [Compound 1201, 6-(2-chloro-5-isobutoxy-phenyl)-N-[(2-oxo-1H-pyridin-3-yl)sulfonyl]-2-(2,4,6-trimethylphenoxy)pyridine-3-carboxamide] it is “+++ (“+++” means <3 uM)”.
On to `CCOc1cccc2c1CN(Cc1c(C)cc(C)cc1C)C2(C)C(=O)NS(=O)(=O)c1ccc2c(c1)CCN2` (stereo not drawn) [Compound 1422, 4-ethoxy-N-indolin-5-ylsulfonyl-1-methyl-2-[(2,4,6-trimethylphenyl)methyl]isoindoline-1-carboxamide], for which the EC30 entry is on record as “+++ (“+++” means <3 uM)”.
The result for `COc1cc(-c2ccc(C(=O)NS(=O)(=O)c3ccc[nH]c3=O)c(N3C[C@@H](C)CC3(C)C)n2)cc(F)c1F` [Compound 1914, 6-(3,4-difluoro-5-methoxy-phenyl)-N-[(2-oxo-1H-pyridin-3-yl)sulfonyl]-2-[(4S)-2,2,4-trimethylpyrrolidin-1-yl]pyridine-3-carboxamide] reads “+++ (“+++” means <3 uM)”; that for `Cc1cc(C)c(Oc2nc(-c3ccccc3)ccc2C(=O)NS(=O)(=O)c2cccc(N(C)C)n2)c(C)c1` [Compound 869, N-[[6-(dimethylamino)-2-pyridyl]sulfonyl]-6-phenyl-2-(2,4,6-trimethylphenoxy)pyridine-3-carboxamide], “+++ (“+++” means <3 uM)”; that for `COc1ccc(-c2ccc(C(=O)NS(=O)(=O)c3cccc(N)n3)c(Oc3c(C)cc(C)cc3C)n2)cc1OC` [Compound 1146, N-[(6-amino-2-pyridyl)sulfonyl]-6-(3,4-dimethoxyphenyl)-2-(2,4,6-trimethylphenoxy)pyridine-3-carboxamide], “++ (“++” means between 3 uM and 10 uM)”.
The entry for `Cc1cc(C)c(Oc2nc(-c3ccc4ccn(C)c4c3)ccc2C(=O)NS(=O)(=O)c2cccc(N)n2)c(C)c1` [Compound 1056, N-[(6-amino-2-pyridyl)sulfonyl]-6-(1-methylindol-6-yl)-2-(2,4,6-trimethylphenoxy)pyridine-3-carboxamide] is “+++ (“+++” means <3 uM)”.
With `Cc1cc(C)c(Oc2nc(N3[C@H](C)CC[C@@H]3C)ccc2C(=O)NS(=O)(=O)c2cccc(N)n2)c(C)c1` [Compound 1494, N-[(6-amino-2-pyridyl)sulfonyl]-6-[(2R,5S)-2,5-dimethylpyrrolidin-1-yl]-2-(2,4,6-trimethylphenoxy)pyridine-3-carboxamide], the EC30 result is “+++ (“+++” means <3 uM)”.
The entry for `COc1c(F)cc(-c2ccc(C(=O)NS(=O)(=O)c3ccc[nH]c3=O)c(N3C[C@@H](C)CC3(C)C)n2)cc1F` [Compound 1801, 6-(3,5-difluoro-4-methoxy-phenyl)-N-[(2-oxo-1H-pyridin-3-yl)sulfonyl]-2-[(4S)-2,2,4-trimethylpyrrolidin-1-yl]pyridine-3-carboxamide] is “+++ (“+++” means <3 uM)”; for `CC1CN(c2ncccc2C(=O)NS(=O)(=O)c2cccc(OCC3CCCCO3)n2)C(C)(C)C1` (stereo not drawn) [Compound 1939, N—[[6-(tetrahydropyran-2-ylmethoxy)-2-pyridyl]sulfonyl]-2-(2,2,4-trimethylpyrrolidin-1-yl)pyridine-3-carboxamide] it is “++ (“++” means between 3 uM and 10 uM)”.
The entry for `CC1CN(c2ncccc2C(=O)NS(=O)(=O)c2cccc(Nc3cccc(Cl)c3Cl)n2)C(C)(C)C1` (stereo not drawn) [Compound 1906, N—[[6-(2,3-dichloroanilino)-2-pyridyl]sulfonyl]-2-(2,2,4-trimethylpyrrolidin-1-yl)pyridine-3-carboxamide] is “+++ (“+++” means <3 uM)”; for `CC(C)COc1cc(F)cc(-c2ccc(C(=O)NS(=O)(=O)N3CCCC(C)(NC(=O)OC(C)(C)C)C3)c(N3CC(C)CC3(C)C)n2)c1` (stereo not drawn) [Compound 1520, tert-butyl N—[1-[[6-(3-fluoro-5-isobutoxy-phenyl)-2-(2,2,4-trimethylpyrrolidin-1-yl)pyridine-3-carbonyl]sulfamoyl]-3-methyl-3-piperidyl]carbamate] it is “+++ (“+++” means <3 uM)”; for `Cc1cc(C)c(Oc2nc(C3CCCC3)ccc2C(=O)NS(=O)(=O)c2cccc(N)n2)c(C)c1` [Compound 1280, N-[(6-amino-2-pyridyl)sulfonyl]-6-cyclopentyl-2-(2,4,6-trimethylphenoxy)pyridine-3-carboxamide] it is “+++ (“+++” means <3 uM)”.
The result for `CC(C)COc1cc(F)cc(-c2ccc(C(=O)NS(=O)(=O)c3cccc(N)n3)c(N(C)CC3(C)CC3)n2)c1` [Compound 1009, N-[(6-amino-2-pyridyl)sulfonyl]-6-(3-fluoro-5-isobutoxy-phenyl)-2-[methyl-[(1-methylcyclopropyl)methyl]amino]pyridine-3-carboxamide] reads “+++ (“+++” means <3 uM)”.
With `CC(C)COc1cc(F)cc(-c2ccc(C(=O)NS(=O)(=O)N3CC[C@@H](N)C3)c(N3C[C@@H](C)CC3(C)C)n2)c1` [Compound 1360, N-[(3R)-3-aminopyrrolidin-1-yl]sulfonyl-6-(3-fluoro-5-isobutoxy-phenyl)-2-[(4S)-2,2,4-trimethylpyrrolidin-1-yl]pyridine-3-carboxamide], the EC30 entry was “+++ (“+++” means <3 uM)”.
The result for `CC(C)=C(C)c1cnc(N2CC(C)CC2(C)C)c(C(=O)NS(=O)(=O)c2cccc(N)n2)c1` (stereo not drawn) [Compound 1590, N-[(6-amino-2-pyridyl)sulfonyl]-5-(1,2-dimethylprop-1-enyl)-2-(2,2,4-trimethylpyrrolidin-1-yl)pyridine-3-carboxamide] reads “+++ (“+++” means <3 uM)”.
